Test systems include NCI-H460 lung; HCT-116 colon; SF-268 CNS; ACHN renal; OVCAR-5 ovarian; OVCAR-3 ovarian; A498 renal; SR leukemia; NCI-H226 lung; M14 melanoma.
Holding throughout (assay): NCI anticancer screen, dose series, 48 h

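1) Cells in 96-well plates. 2) Compound, 48 h, 5 concentrations. 3) Linear interpolation between surrounding doses. 4) Unreached endpoint = highest concentration. The concentration for 50% growth inhibition is given as GI50. TGI marks complete inhibition of growth.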

In the case of `OCC1OC(n2cnc3c(=S)nc[nH]c32)C(O)C1O` (stereo not drawn), the GI50 in the test with NCI-H460 lung was 7.72 µM; with HCT-116 colon, 2.78 µM; with SF-268 CNS, greater than 23.9 µM; with ACHN renal, 4.87 µM; with OVCAR-5 ovarian, 3.79 µM; in the test with A498 renal it was 19.8 µM. For the same compound, the GI50 was greater than 31.1 µM in the test with NCI-H226 lung and 1.15 µM in the test on M14 melanoma. In addition, the TGI in the test on NCI-H460 lung, in the test on HCT-116 colon, in the test with SF-268 CNS, in the test on ACHN renal, in the test on OVCAR-5 ovarian and with OVCAR-3 ovarian was greater than 2500 µM throughout. In addition, the TGI with A498 renal was greater than 2380 µM; with SR leukemia it was greater than 2500 µM; with NCI-H226 lung it was greater than 2500 µM; in the test on M14 melanoma, greater than 2500 µM.

As to `CCNCCNc1cc(C2CCCCC2)c(C#N)c2nc3ccccc3n12`, the GI50 with NCI-H460 lung is 1.78 µM; in the test with HCT-116 colon, 1.37 µM; with SF-268 CNS, 1.9 µM; in the test on ACHN renal, 1.79 µM; in the test with OVCAR-5 ovarian, 2.57 µM; in the test on OVCAR-3 ovarian it was 1.7 µM. Further, the GI50 with A498 renal was 1.56 µM; in the test on SR leukemia, 0.288 µM; with NCI-H226 lung it was 1.71 µM; in the test with M14 melanoma, 1.93 µM. Further, the TGI in the test with NCI-H460 lung was determined as 3.28 µM; in the test on HCT-116 colon, 2.72 µM; in the test with SF-268 CNS, 4.38 µM; in the test on ACHN renal it was 3.86 µM; in the test on OVCAR-5 ovarian, 6.56 µM; with OVCAR-3 ovarian, 3.29 µM. The TGI in the test on A498 renal was found to be 2.95 µM; in the test on SR leukemia it was 1.04 µM; in the test with NCI-H226 lung, 3.32 µM; with M14 melanoma it was 3.67 µM.

With `COC(=O)C1=C(C(=O)OC)SC(=C(N=Nc2ccccc2)c2ccccc2)S1`, the TGI in the test with NCI-H460 lung, in the test on HCT-116 colon, in the test with SF-268 CNS, in the test on ACHN renal, with OVCAR-5 ovarian and in the test on OVCAR-3 ovarian was greater than 100 µM each time. Besides, the TGI in the test on A498 renal, in the test with SR leukemia, in the test with NCI-H226 lung and in the test with M14 melanoma was greater than 100 µM each time.

With `CCN(CC)c1ccc(C(=N)c2ccc(N(C)C)cc2)cc1`, the GI50 in the test with NCI-H460 lung is 1.69 µM; in the test with HCT-116 colon, 0.155 µM; in the test with SF-268 CNS, 0.22 µM; in the test on ACHN renal it was 2.34 µM; with OVCAR-5 ovarian it was 2.04 µM; with OVCAR-3 ovarian it was 0.156 µM. For the same compound, the GI50 with A498 renal is 1.17 µM; in the test on SR leukemia it was 0.301 µM; in the test on NCI-H226 lung, 1.5 µM; with M14 melanoma it was 0.167 µM. In addition, the TGI in the test on NCI-H460 lung came to 10.8 µM; in the test with HCT-116 colon it was 3.39 µM; with SF-268 CNS it was 5.42 µM; with ACHN renal, 12 µM; in the test with OVCAR-5 ovarian, 6.78 µM; in the test with OVCAR-3 ovarian, 4.07 µM. For the same compound, the TGI is 6.32 µM with A498 renal, 2.8 µM in the test with SR leukemia, 5.46 µM in the test with NCI-H226 lung and 2.06 µM with M14 melanoma.

For the compound `C=C1CCC2C3(C)COC(c4ccccc4Br)OC3CCC2(C)C1C/C=C1/C(=O)OCC1OC(C)=O` (stereo not drawn), the GI50 in the test on NCI-H460 lung was 1.74 µM; with HCT-116 colon, 0.289 µM; with SF-268 CNS it was 1.65 µM; in the test on ACHN renal, 1.6 µM; in the test on OVCAR-5 ovarian it was 1.85 µM; with OVCAR-3 ovarian, 0.932 µM. For the same compound, the GI50 in the test with A498 renal was 1.6 µM; with SR leukemia it was 0.215 µM; with NCI-H226 lung it was 1.64 µM; with M14 melanoma it was 1.53 µM. The TGI in the test on NCI-H460 lung was determined as 3.29 µM; in the test with HCT-116 colon it was 0.751 µM; in the test with SF-268 CNS, 3.01 µM; in the test on ACHN renal, 2.96 µM; with OVCAR-5 ovarian, 3.28 µM; in the test on OVCAR-3 ovarian, 2.47 µM. Also, the TGI with A498 renal stood at 3.91 µM; in the test with SR leukemia, 0.706 µM; in the test with NCI-H226 lung it was 3.42 µM; in the test on M14 melanoma, 2.86 µM.

For the compound `Nc1n[nH]c2ccc([C@@H]3Nc4ccc5[nH]ncc5c4[C@H]4C5C=CC(C5)[C@@H]34)cc12` (stereo partly drawn), the GI50 was 0.365 µM in the test with NCI-H460 lung; 0.351 µM in the test on HCT-116 colon; 1.36 µM with SF-268 CNS; 0.562 µM with ACHN renal; 0.586 µM with OVCAR-5 ovarian; 0.291 µM in the test on OVCAR-3 ovarian. Besides, the GI50 in the test on A498 renal was 0.0876 µM; in the test with SR leukemia it was 0.144 µM; in the test with NCI-H226 lung, 0.636 µM; with M14 melanoma, 0.231 µM. In addition, the TGI amounted to 11.4 µM with NCI-H460 lung; 3.33 µM in the test on HCT-116 colon; 31.5 µM in the test on SF-268 CNS; 47.8 µM in the test with ACHN renal; 30.3 µM with OVCAR-5 ovarian; 4.23 µM in the test with OVCAR-3 ovarian. In addition, the TGI in the test with A498 renal is 0.492 µM; with SR leukemia it was greater than 100 µM; in the test on NCI-H226 lung, 10.6 µM; in the test with M14 melanoma, 1.13 µM.

(Values after PubChem BioAssay (NCI).)
